Results from publication PMC10105399 (European Journal of Medicinal Chemistry, 2023).

Tests used:
[1] = molecular target: SARS-CoV-2 3CLpro (Severe acute respiratory syndrome coronavirus 2, UniProt P0DTD1); assay type: biochemical
[2] = molecular target: MERS-CoV 3CLpro (Middle East respiratory syndrome-related coronavirus, UniProt K9N7C7); assay type: biochemical
[3] = test system: alpha-chymotrypsin; assay type: biochemical, human; conditions: read-out: IC50 Chymo-trypsin

MERS-CoV 3CLpro, sequence (K9N7C7 3248-3553 limits assumed): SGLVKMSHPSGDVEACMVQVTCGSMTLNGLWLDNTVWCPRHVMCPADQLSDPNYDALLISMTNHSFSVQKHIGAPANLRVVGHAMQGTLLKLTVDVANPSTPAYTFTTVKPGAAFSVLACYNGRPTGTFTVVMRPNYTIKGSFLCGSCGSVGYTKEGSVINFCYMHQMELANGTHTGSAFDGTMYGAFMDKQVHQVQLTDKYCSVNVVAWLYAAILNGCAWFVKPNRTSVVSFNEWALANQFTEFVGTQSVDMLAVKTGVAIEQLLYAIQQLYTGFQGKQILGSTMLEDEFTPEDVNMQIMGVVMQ

Compound | IC50 [3] [µM] | other results
CC(C)C[C@H](NC(=O)OCC(C)(C)Sc1ccccc1)C(=O)N[C@H](C=O)C[C@@H]1CCNC1=O [1c, 2-Methyl-2-(phenylthio)propyl ((S)-4-methyl-1-oxo-1-(((S)-1-oxo-3-((S)-2-oxopyrrolidin-3-yl)propan-2-yl)amino)pentan-2-yl)carbamate] | > 50 | fold higher potency than 8c against SARS-CoV-2 3CLpro [1]: 4.6 fold; fold higher potency than 8c against MERS-CoV 3CLpro [2]: ~2 fold
CC(C)C[C@H](NC(=O)OCC(C)(C)Sc1ccccc1)C(=O)N[C@@H](C[C@@H]1CCNC1=O)C(=O)C(=O)NC1CC1 [1e, 2-Methyl-2-(phenylthio)propyl ((S)-1-(((S)-4-(cyclopropylamino)-3,4-dioxo-1-((S)-2-oxopyrrolidin-3-yl)butan-2-yl)amino)-4-methyl-1-oxopentan-2-yl)carbamate] | > 50 | 
CC(C)C[C@H](NC(=O)OCC(C)(C)Sc1ccccc1)C(=O)N[C@H](C#N)C[C@@H]1CCNC1=O [1g, 2-Methyl-2-(phenylthio)propyl ((S)-1-(((S)-1-cyano-2-((S)-2-oxopyrrolidin-3-yl)ethyl)amino)-4-methyl-1-oxopentan-2-yl)carbamate] | > 50 | 
[2H]C([2H])(OC(=O)N[C@@H](CC(C)C)C(=O)N[C@H](C=O)C[C@@H]1CCNC1=O)C(C)(C)Sc1ccccc1 [2c, 2-Methyl-2-(phenylthio)propyl-1,1-d2 ((S)-4-methyl-1-oxo-1-(((S)-1-oxo-3-((S)-2-oxopyrrolidin-3-yl)propan-2-yl)amino)pentan-2-yl)carbamate] | > 50 | 
CC(C)C[C@H](NC(=O)OCC(C)(C)Sc1cccc(Cl)c1)C(=O)N[C@H](C=O)C[C@@H]1CCNC1=O [7c, 2-((3-Chlorophenyl)thio)-2-methylpropyl ((S)-4-methyl-1-oxo-1-(((S)-1-oxo-3-((S)-2-oxopyrrolidin-3-yl)propan-2-yl)amino)pentan-2-yl)carbamate] | > 50 | 
CC(C)C[C@H](NC(=O)OCC(C)(C)Sc1nc2ccccc2[nH]1)C(=O)N[C@H](C=O)C[C@@H]1CCNC1=O [9c, 2-((1H-benzo[d]imidazole-2-yl)thio)-2-methylpropyl ((S)-4-methyl-1-oxo-1-(((S)-1-oxo-3-((S)-2-oxopyrrolidin-3-yl)propan-2-yl)amino)pentan-2-yl)carbamate] |  | fold less active than 1c against SARS-CoV-2 3CLpro [1]: more than 4 fold; fold reduction in potency relative to 1c against MERS-CoV 3CLpro [2]: 1.5 fold
CC(C)C[C@H](NC(=O)OCC(C)(C)Oc1ccccc1)C(=O)N[C@H](C=O)C[C@@H]1CCNC1=O [10c, 2-Methyl-2-phenoxypropyl ((S)-4-methyl-1-oxo-1-(((S)-1-oxo-3-((S)-2-oxopyrrolidin-3-yl)propan-2-yl)amino)pentan-2-yl)carbamate] |  | fold less active than 1c against SARS-CoV-2 3CLpro [1]: more than 4 fold; fold more potent than 1c against MERS-CoV 3CLpro [2]: 2 fold
[2H]C([2H])(OC(=O)N[C@@H](CC(C)C)C(=O)N[C@H](C=O)C[C@@H]1CCNC1=O)C(C)(C)Oc1ccc(Cl)cc1 [12c, 2-(4-Chlorophenoxy)-2-methylpropyl-1,1-d2 ((S)-4-methyl-1-oxo-1-(((S)-1-oxo-3-((S)-2-oxopyrrolidin-3-yl)propan-2-yl)amino)pentan-2-yl)carbamate] | > 50 | 
CC(C)C[C@H](NC(=O)OCC(C)(C)Oc1cccc(Cl)c1)C(=O)N[C@H](C=O)C[C@@H]1CCNC1=O [13c, 2-(3-Chlorophenoxy)-2-methylpropyl ((S)-4-methyl-1-oxo-1-(((S)-1-oxo-3-((S)-2-oxopyrrolidin-3-yl)propan-2-yl)amino)pentan-2-yl)carbamate] | > 50 | 
CC(C)C[C@H](NC(=O)OCC(C)(C)Oc1ccc(F)cc1)C(=O)N[C@H](C=O)C[C@@H]1CCNC1=O [15c, 2-(4-Fluorophenoxy)-2-methylpropyl ((S)-4-methyl-1-oxo-1-(((S)-1-oxo-3-((S)-2-oxopyrrolidin-3-yl)propan-2-yl)amino)pentan-2-yl)carbamate] | > 50 | 
